Laboratory results from paper PMC12064818, “A general assay platform to study protein pharmacology using ligand-dependent structural dynamics” (Nature Communications, 2025).
Where a name gives a salt, the structure may show the parent alone. Read-outs that look alike come from different tables or passages of the source.

Assays:
[1] = target: PKA-N-HiBiT (Homo sapiens, UniProt P17612); assay: SDR assay, PKA-N-HiBiT
[2] = test system: PKA; conditions: cited from earlier work
[3] = target: T1, ABL1-N-HiBiT kinase domain (Homo sapiens, UniProt P00519); assay: SDR assay, ABL1-N-HiBiT
T1 sequence (P00519 233-500): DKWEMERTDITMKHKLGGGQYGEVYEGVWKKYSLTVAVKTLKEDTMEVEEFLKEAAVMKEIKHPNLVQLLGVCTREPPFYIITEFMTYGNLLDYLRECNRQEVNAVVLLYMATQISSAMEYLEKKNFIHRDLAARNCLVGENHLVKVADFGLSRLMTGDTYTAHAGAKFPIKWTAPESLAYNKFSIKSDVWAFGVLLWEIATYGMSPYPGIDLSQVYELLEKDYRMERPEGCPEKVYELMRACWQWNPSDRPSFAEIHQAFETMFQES

[4] = target: FLuc-N-HiBiT (firefly luciferase) (Photinus pyralis, UniProt P08659, form not given/L550V); assay: SDR assay, FLuc-N-HiBiT; conditions: ATP-independent pyrazolo pyrimidine (clade P)
[5] = heatmap data, 128 kinase inhibitors
[6] = ABL1-N-HiBiT qHTS, average maximal SDR response
[7] = read-out: SDR Ave SDR50, ABL1-N-HiBiT qHTS, average, unit inferred
[8] = annotation yes/no for kinase library compound, source not given
[9] = PKA-N-HiBiT qHTS, SDR assay, average maximal response
[10] = ABL1-N-HiBiT qHTS, SDR assay, average maximal response
[11] = read-out: SDR Ave SDR50, ABL1-N-HiBiT qHTS, SDR assay, average
[12] = read-out: PKA SDR Ave SDR50, PKA-N-HiBiT qHTS, SDR assay, average

Sequence of FLuc-N-HiBiT (firefly luciferase) (P08659 2-550 L550V, form open): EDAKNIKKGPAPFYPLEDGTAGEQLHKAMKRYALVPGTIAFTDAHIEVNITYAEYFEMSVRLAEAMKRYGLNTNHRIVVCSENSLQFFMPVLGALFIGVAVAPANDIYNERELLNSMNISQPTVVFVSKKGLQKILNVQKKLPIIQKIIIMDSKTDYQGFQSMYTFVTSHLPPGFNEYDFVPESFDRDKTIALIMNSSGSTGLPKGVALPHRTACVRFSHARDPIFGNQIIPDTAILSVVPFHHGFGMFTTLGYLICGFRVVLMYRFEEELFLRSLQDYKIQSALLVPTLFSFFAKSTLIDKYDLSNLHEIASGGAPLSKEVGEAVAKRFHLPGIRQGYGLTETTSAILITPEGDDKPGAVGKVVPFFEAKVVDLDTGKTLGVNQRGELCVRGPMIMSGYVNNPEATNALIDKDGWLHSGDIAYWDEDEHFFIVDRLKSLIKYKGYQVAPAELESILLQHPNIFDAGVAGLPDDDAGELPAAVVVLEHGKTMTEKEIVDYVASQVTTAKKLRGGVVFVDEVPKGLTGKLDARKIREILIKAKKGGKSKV

Compound	ABL1 SDR pSDR50 [3, 5]	SDR Ave Max Response [3, 6]	SDR Ave Max Response [1, 9]	Annotated PKA activity [2, 8]	also measured
Nc1nc(NCCNc2ncc(-n3ccnc3)c(-c3ccc(Cl)cc3Cl)n2)ccc1[N+](=O)[O-] [CT-98014]	4.54	-28.48	–	–	EC50 [1]: 11.7 µM; SDR Ave Max Response [1]: -28.99; EC50 ([1]; read-out: PKA SDR Ave SDR50): 12.9 µM; Annotated PKA activity [2]: no; EC50 [3, 7]: 33.8 µM
O=c1cc(N2CCOCC2)nc2c3ccccc3ccn12 [Compound 401]	–	–	–	no	Emax ([1]; read-out: SDR Ave Max Response): 0.18%; pSDR50 (clade P) [4]: 4.78; % Activity (max response) ([4]; SDR): 29.04%; EC50 ([3]; ABL1 SDR pSDR50, ABL1, SDR, heatmap data, 128 kinase inhibitors): 7.41 µM; EC50 ([3]; SDR Ave SDR50, ABL1-N-HiBiT qHTS, average, unit inferred): 7.6 µM; Emax ([3]; read-out: SDR Ave Max Response): 22.9%
Cc1ncc(NC(=O)c2ccc(CN3CCN(C)CC3)c(C(F)(F)F)c2)cc1Nc1nccc(-c2cccnc2)n1 [Flumatinib]	–	74.04	7.84	no	–
CC1(C)OCCn2c1nc1c(N3CCOCC3)nc(-c3cnc(N)nc3)nc12 [GDC-0084]	5.16	–	3.97	no	SDR Ave Max Response [3, 10]: 58.32; EC50 [3, 11]: 7.07 µM
Cc1[nH]c2ccccc2c1C1=C(NCCc2ccc(F)cc2)C(=O)N(C)C1=O [IM-12]	–	-12.41	-30.07	no	EC50 [1]: 32.4 µM; EC50 [1, 12]: 41.4 µM
C[C@@H]1CN(CC(=O)Nc2ccc3c(c2)Cc2cccc(-c4cc(=O)cc(N5CCOCC5)o4)c2S3)C[C@H](C)O1 [KU-60019]	–	-23.55	-4.54	no	–
Cc1n[nH]c2ncc(C(=O)N3CCC[C@H]3c3ccc(Cl)cc3)cc12 [MSC2530818]	–	–	40.05	no	EC50 [1]: 14.1 µM; EC50 [1, 12]: 14.5 µM; SDR Ave Max Response [3, 10]: 4.30
FC(F)(F)c1ccc(/C=C/c2nc(COc3ccc(CCCCn4ccnn4)cc3)co2)cc1 [Mubritinib]	–	–	–	–	SDR Ave Max Response [1]: 6.74; Annotated PKA activity [2]: no; SDR Ave Max Response [3]: 1.25
O=C(Nc1ccc(OC(F)(F)F)cc1)c1sccc1NCc1ccnc2ccccc12 [OSI-930]	5.04	17.46	9.10	no	EC50 [3, 7]: 9.38 µM
O=C(NOCC(O)CO)c1cc(Br)c(F)c(F)c1Nc1ccc(I)cc1F (stereo not shown) [PD-318088]	–	-2.26	-21.34	no	PKA SDR Ave pSDR50 ([1]; PKA-N-HiBiT qHTS, SDR assay, average): 4.33; EC50 [1, 12]: 62 µM
N#Cc1cccc(-c2c[nH]c3ncnc(N4CCOCC4)c23)c1 [PF-06447475]	4.46	52.23	35.28	no	EC50 [1]: 19.5 µM; EC50 [1, 12]: 20.8 µM; EC50 [3, 7]: 35.5 µM
C=CC(=O)N1CCC(Oc2cc3c(Nc4ccc(Cl)c(Cl)c4F)ncnc3cc2OC)CC1 [Poziotinib]	4.03	56.26	8.47	no	–
CO[C@H]1/C=C/O[C@@]2(C)Oc3c(C)c(O)c4c(O)c(c(/C=N\N5CCN(C6CCCC6)CC5)c(O)c4c3C2=O)NC(=O)C(C)=C/C=C/[C@H](C)[C@H](O)[C@@H](C)[C@@H](O)[C@@H](C)[C@H](OC(C)=O)[C@@H]1C [Rifapentin]	4.28	-34.67	-45.77	no	EC50 [1, 12]: 17.1 µM
Cc1cc(F)ccc1-c1nc(NCCNC(=N)NC#N)nc2c1ccc(=O)n2-c1c(F)cccc1F [SB 706504]	–	3.05	3.70	no	–
COc1cc(NC(=O)c2cccc(-n3cc(NC(=O)Nc4cccc(C)c4)cn3)c2)cc(OC)c1OC [SR 3576]	–	6.18	1.20	no	–
O=C(Nc1cc(C(F)(F)F)ccc1N1CCCCC1)c1ccncc1 [SRPIN340]	–	-4.31	1.60	no	–
N#Cc1ccc2ncnc(NCCc3ccccc3)c2c1 [Senexin A]	–	-0.36	-4.85	no	–
O=C1CCC(N2C(=O)c3ccccc3C2=O)C(=O)N1 (stereo not shown) [Thalidomide]	–	-2.59	-13.01	no	–
COC(=O)Nc1ccc(-c2nc(N3CCOCC3)c3cnn(C4CCN(C(=O)OC)CC4)c3n2)cc1 [WYE-354]	–	1.70	4.88	no	–
Indirubin	–	–	5.53	no	SDR Ave Max Response [3]: 2.52
Mps1-IN-3	4.80	66.03	14.72	no	–
PLX-4720	4.63	37.18	5.33	no	EC50 [3, 7]: 24.5 µM

Continued, in another order:

ABL1 SDR pSDR50 [3, 5]	SDR Ave Max Response [3, 6]	SDR Ave Max Response [1, 9]	Compound	Annotated PKA activity [2, 8]	also measured
–	–	3.69	Cc1cc(F)ccc1-c1nc(NC(CO)CO)nc2c1ccc(=O)n2-c1c(F)cccc1F [Dilmapimod]	no	SDR Ave Max Response [3, 10]: -3.68
–	–	10.49	Cn1ncc(NC(=O)c2nc(-c3c(F)cccc3F)sc2N)c1N1CC[C@@H](N)[C@H](F)CC1 [GDC-0339]	no	SDR Ave Max Response [3, 10]: 12.78
–	10.66	2.68	COc1ccc(-n2c(C)c([N+](=O)[O-])c3ccc(O)cc32)cc1 [ID-8]	no	–
5.21	-19.98	-2.90	CN1CCN(CCCNc2ncc(Cl)c(-c3cc4c(C(=O)NC5CC5)cccc4s3)n2)CC1 [LY-2409881]	no	EC50 [3, 7]: 7.98 µM
5.27	59.57	-13.81	O=C(c1cccc(Cl)c1F)N1CCN(Cc2cccc(Nc3nccs3)n2)CC1 [MK-8745]	no	EC50 [3, 7]: 5.74 µM
–	–	1.65	O=C(NCCCNc1nc(Nc2ccc(N3CCOCC3)cc2)ncc1C1CC1)C1CCC1 [MRT-68601 HCl]	no	SDR Ave Max Response [3, 10]: -7.81
–	22.76	8.78	Cc1ccc(C(=O)Nc2ccc(Oc3cc4cnn(C)c4cc3-c3cn[nH]c3)c(F)c2)c(=O)n1-c1ccc(F)cc1 [Merestinib]	no	–
–	60.77	11.43	CNC(=O)c1ccccc1Nc1nc(Nc2ccc(N3CCOCC3)cc2OC)ncc1Cl [NVP-TAE226]	no	–
–	–	1.51	COc1ccc(-n2c(SCC#N)nc3sc4c(c3c2=O)CCCC4)cc1 [Necrostatin-5]	no	SDR Ave Max Response [3]: -3.84
–	18.89	3.67	Cc1ccc(NC(=O)N2CCN(c3nc(N)nc4sc(-c5cccnc5)nc34)CC2)cc1 [PI4KIII beta inhibitor 3]	no	SDR Ave pSDR50 ([3]; ABL1-N-HiBiT qHTS, average): 4.83; EC50 [3, 7]: 14.9 µM
–	-3.85	1.44	Cn1sc(=O)n(Cc2ccccc2)c1=O [TDZD 8]	no	–
–	9.81	3.01	C=CC(=O)Nc1cccc(Oc2nc(Nc3ccc(N4CCN(C)CC4)cc3OC)ncc2Cl)c1 [WZ4002]	no	–
–	10.90	1.84	CCNC(=O)Nc1ccc(-c2nc3c(c(N4CCOC[C@@H]4C)n2)CCN(c2ncccn2)C3)cc1 [mTOR-IN-1]	no	–
4.38	-23.39	-11.95	CaMKII-IN-1	no	–
–	10.06	-6.93	PHT-427	no	–
–	-0.63	1.50	STF-083010	no	–
4.69	–	6.35	UK-371804	no	SDR Ave Max Response [3, 10]: -28.31; EC50 [3, 11]: 26.5 µM
